Results taken from USRE47689E1, “Compounds for treating spinal muscular atrophy” (PTC Therapeutics, Inc., priority 2011, dated 2019).

Tests used:
Smn protein = Smn protein assay in cultured cells (SMN HTRF); format: cell-based, human; conditions: 48 hours; for maximum fold (Fold) increase of Smn protein: SMA patient fibroblast cells, 7-point concentration data, fold increase relative to vehicle control (SMN HTRF); for EC1.5x (concentration giving 1.5-fold Smn protein increase): SMA Type 1 patient fibroblast cells (GM03813), 7-point concentration curve, SMN HTRF, concentration producing 1.5 times Smn protein vs DMSO vehicle control, read-out: EC1.5x for Smn protein expression
In short: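 Smn in SMA fibroblast lysates, measured by anti-SMN HTRF after 48 h compound exposure; EC1.5x from fold change over vehicle.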

[1] = system: SMN2 minigene (full length SMN2 minigene mRNA containing SMN2 exon 7); assay: SMN2 minigene mRNA splicing RT-qPCR assay in cultured cells; format: cell-based, human; conditions: Homo sapiens, HEK293-H; HEK293H cells stably transfected with SMN2-A minigene; 24 hours; 7-point concentration curve; 1.5-fold relative to vehicle-treated cells; read-out: EC1.5x for production of full length SMN2 mRNA
In short: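 Full-length SMN2 minigene mRNA (exon 7 included), minigene-specific and not endogenous SMN, quantified by RT-qPCR multiplexed with GAPDH in stably transfected HEK293H cells after 24 h compound exposure at 37° C. Abundance from efficiency-corrected Ct, normalized to GAPDH and vehicle; EC1.5x reported as star bins.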

melting point | Structure (SMILES) | maximum fold (Fold) increase of Smn protein (Smn protein) | EC (1.5-fold) [1] | EC1.5x (concentration giving 1.5-fold Smn protein increase) (Smn protein)
224 to 227 °C | Cc1c(-c2cn3cc(Cl)ccc3n2)c(=O)oc2cc(N3CCNCC3)ccc12 [Cpd 112, 3-(6-chloroimidazo[1,2-a]pyridin-2-yl)-4-methyl-7-(piperazin-1-yl)-2H-chromen-2-one] | * (maximum fold increase of ≤1.2) | 3 to 30 µM | –
268 to 275 °C | Cc1cc(F)c2nc(-c3cc4ccc(N5CCN6CCCCC6C5)cc4oc3=O)cn2c1 (stereo not shown) [Compound 612, 3-(8-fluoro-6-methylimidazo[1,2-a]pyridin-2-yl)-7-(octahydro-2H-pyrido[1,2-a]pyrazin-2-yl)-2H-chromen-2-one] | ** (fold increase between >1.2 and ≤1.35) | 0.3 to 1 µM | –
251 to 256 °C | Cc1cc2cc(-c3cc4ccc(N5CCN[C@H](C)C5)cc4oc3=O)oc2c(C)n1 [Compound 806, 3-(5,7-dimethylfuro[2,3-c]pyridin-2-yl)-7-[(3R)-3-methylpiperazin-1-yl]-2H-chromen-2-one] | ***** (fold increase >1.65) | < 0.1 µM | < 300 nM
189 to 195 °C | Cc1cn2cc(-c3cc4ccc(CN5CCNCC5)cc4oc3=O)nc2c(C)n1 [Compound 848, 3-(6,8-dimethylimidazo[1,2-a]pyrazin-2-yl)-7-(piperazin-1-ylmethyl)-2H-chromen-2-one] | ***** (fold increase >1.65) | < 0.1 µM | 300 to 1000 nM
236 to 242 °C | Cc1cc(F)c2nc(-c3cc4ccc(N5CCNC6(CCCC6)C5)cc4oc3=O)cn2c1 [Compound 599, 7-(6,9-diazaspiro[4.5]dec-9-yl)-3-(8-fluoro-6-methylimidazo[1,2-a]pyridin-2-yl)-2H-chromen-2-one] | *** (fold increase between >1.35 and ≤1.5) | 0.1 to 0.3 µM | –
241 to 243 °C | COc1ccc(-c2cc3ccc(N4CCNCC4)cc3oc2=O)cc1F [Compound 544, 3-(3-fluoro-4-methoxyphenyl)-7-(piperazin-1-yl)-2H-chromen-2-one] | ** (fold increase between >1.2 and ≤1.35) | 0.1 to 0.3 µM | –
196 to 198 °C | C[C@H]1CN(c2ccc3cc(-c4ccc5c(c4)OCCO5)c(=O)oc3c2)CCN1 [Compound 513, 3-(2,3-dihydro-1,4-benzodioxin-6-yl)-7-[(3S)-3-methylpiperazin-1-yl]-2H-chromen-2-one] | * (maximum fold increase of ≤1.2) | 1 to 3 µM | –
200 to 204 °C | Cc1cn2cc(-c3cc4ccc(N5CC[C@H](N(C)C)C5)cc4oc3=O)cc2cn1 [Compound 666, 7-[(3S)-3-(dimethylamino)pyrrolidin-1-yl]-3-(3-methylpyrrolo[1,2-a]pyrazin-7-yl)-2H-chromen-2-one] | **** (fold increase between >1.5 and ≤1.65) | < 0.1 µM | < 300 nM
226 to 233 °C | Cc1cn2cc(-c3cc4ccc(N[C@@H]5CCN(C)C5)cc4oc3=O)nc2c(C)n1 [Compound 730, 3-(6,8-dimethylimidazo[1,2-a]pyrazin-2-yl)-7-{[(3R)-1-methylpyrrolidin-3-yl]amino}-2H-chromen-2-one] | *** (fold increase between >1.35 and ≤1.5) | < 0.1 µM | –

More lines, now with the values behind:

Structure (SMILES) | melting point | maximum fold (Fold) increase of Smn protein (Smn protein) | EC (1.5-fold) [1] | EC1.5x (concentration giving 1.5-fold Smn protein increase) (Smn protein)
CN1CCN(c2ccc3cc(-c4nc5c(Cl)cccc5s4)c(=O)oc3c2)CC1 [Compound 17, 3-(4-chloro-1,3-benzothiazol-2-yl)-7-(4-methylpiperazin-1-yl)-2H-chromen-2-one] | 256 to 260 °C | ** (fold increase between >1.2 and ≤1.35) | 0.3 to 1 µM | –
C[C@@H]1CN(c2ccc3cc(-c4cn5ccc(C(F)(F)F)cc5n4)c(=O)oc3c2)CCN1 [Compound 267, 7-[(3R)-3-methylpiperazin-1-yl]-3-[7-(trifluoromethyl)imidazo[1,2-a]pyridin-2-yl]-2H-chromen-2-one] | 252 to 260 °C | * (maximum fold increase of ≤1.2) | 1 to 3 µM | –
C[C@@H]1CN(c2ccc3cc(-c4cn5cc(Cl)sc5n4)c(=O)oc3c2)C[C@H](C)N1 [Compound 473, 3-(2-chloroimidazo[2,1-b][1,3]thiazol-6-yl)-7-[(3R,5S)-3,5-dimethylpiperazin-1-yl]-2H-chromen-2-one] | 270 to 273 °C | ** (fold increase between >1.2 and ≤1.35) | 0.1 to 0.3 µM | –
Cc1cc(F)cn2cc(-c3cc4ccc(N5CCNCC5)cc4oc3=O)nc12 [Compound 328, 3-(6-fluoro-8-methylimidazo[1,2-a]pyridin-2-yl)-7-(piperazin-1-yl)-2H-chromen-2-one] | 223 to 230 °C | * (maximum fold increase of ≤1.2) | 0.3 to 1 µM | –
Cl.O=c1oc2cc(N3CCNCC3)ccc2cc1-c1nc2cc(F)ccc2o1 [Compound 19, 3-(5-fluoro-1,3-benzoxazol-2-yl)-7-(piperazin-1-yl)-2H-chromen-2-one hydrochloride] | 320 to 325 °C | * (maximum fold increase of ≤1.2) | 1 to 3 µM | –
CN1CCCN(c2ccc3cc(-c4nc5ccccc5o4)c(=O)oc3c2)CC1 [Compound 47, 3-(1,3-benzoxazol-2-yl)-7-(4-methyl-1,4-diazepan-1-yl)-2H-chromen-2-one] | 170 to 173 °C | ** (fold increase between >1.2 and ≤1.35) | 3 to 30 µM | –
COc1ccn2cc(-c3cc4ccc(N5C[C@@H](C)N[C@@H](C)C5)cc4oc3=O)nc2c1 [Compound 432, 7-[(3R,5S)-3,5-dimethylpiperazin-1-yl]-3-(7-methoxyimidazo[1,2-a]pyridin-2-yl)-2H-chromen-2-one] | 225 to 230 °C | ** (fold increase between >1.2 and ≤1.35) | 1 to 3 µM | –
CN(C)CCN(C)c1ccc2cc(-c3cn4cccnc4n3)c(=O)oc2c1 [Compound 130, 7-{[2-(dimethylamino)ethyl](methyl)amino}-3-(imidazo[1,2-a]pyrimidin-2-yl)-2H-chromen-2-one] | 175 to 180 °C | * (maximum fold increase of ≤1.2) | 1 to 3 µM | –
Cc1cc(F)c2nc(-c3cc4ccc(N5CCCN(C)CC5)cc4oc3=O)cn2c1 [Compound 355, 3-(8-fluoro-6-methylimidazo[1,2-a]pyridin-2-yl)-7-(4-methyl-1,4-diazepan-1-yl)-2H-chromen-2-one] | 233 to 240 °C | **** (fold increase between >1.5 and ≤1.65) | < 0.1 µM | 300 to 1000 nM
CCc1cn2cc(-c3cc4ccc(N5CCCNCC5)cc4oc3=O)nc2s1 [Compound 430, 7-(1,4-diazepan-1-yl)-3-(2-ethylimidazo[2,1-b][1,3]thiazol-6-yl)-2H-chromen-2-one] | 185 to 189 °C | * (maximum fold increase of ≤1.2) | 1 to 3 µM | –
